Test results: ChEMBL document CHEMBL1201862, “PubChem BioAssay data set” (2004)
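Method: 48-hour compound exposure of cells in 96-well plates, five concentrations, linear interpolation of endpoints. Here, GI50 denotes the concentration required for 50% inhibition of growth.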 Active and inactive are the calls of the source. No stated cut-off is given here; in the data, active = GI50 up to about 1.1 µM and inactive = higher.

Experiments:
Experiment in all cases: DTP human tumour cell line panel, 48 h
UACC-257 = test system: UACC-257
DU-145 = test system: DU-145
A549 = test system: A549
SF-268 = test system: SF-268
SW-620 = test system: SW-620
HCC 2998 = test system: HCC 2998
RPMI-8226 = test system: RPMI-8226
A498 = test system: A498
IGROV-1 = test system: IGROV-1
UACC-62 = test system: UACC-62
NCI/ADR-RES = test system: NCI/ADR-RES
CAKI-1 = test system: CAKI-1
SNB-75 = test system: SNB-75
TK-10 = test system: TK-10
HOP-92 = test system: HOP-92
SN12C = test system: SN12C
COLO 205 = test system: COLO 205
786-0 = test system: 786-0
K562 = test system: K562
HL-60 = test system: HL-60

Row | SMILES | GI50 (UACC-257) | GI50 (DU-145) | GI50 (A549) | GI50 (SF-268) | GI50 (SW-620) | GI50 (HCC 2998) | GI50 (RPMI-8226) | GI50 (A498) | GI50 (IGROV-1) | GI50 (UACC-62) | GI50 (NCI/ADR-RES) | GI50 (CAKI-1) | GI50 (SNB-75) | GI50 (TK-10) | GI50 (HOP-92) | GI50 (SN12C) | GI50 (COLO 205) | GI50 (786-0) | GI50 (K562) | GI50 (HL-60)
1 | O=C(CCc1ccc(O)c(O)c1)NCCc1ccccc1 | > 79.4 µM (inactive) | > 88.1 µM (inactive) | 76.9 µM (inactive) | > 32.4 µM (inactive) | > 100 µM (inactive) | > 100 µM (inactive) | 6.1 µM (inactive) | > 100 µM (inactive) | 50.9 µM (inactive) | 24.5 µM (inactive) | 40.4 µM (inactive) | 6.49 µM (inactive) | > 48 µM (inactive) | > 79.8 µM (inactive) | 48.3 µM (inactive) | > 31.6 µM (inactive) | 23.1 µM (inactive) | 31.6 µM (inactive) | 16.5 µM (inactive) | 6.58 µM (inactive)
2 | CC(CN1NC12CCCC2)N1NC12CCCC2 (stereo not given) | 60.8 µM (inactive) | > 100 µM (inactive) | > 100 µM (inactive) | > 100 µM (inactive) | > 100 µM (inactive) | > 100 µM (inactive) | > 100 µM (inactive) | > 100 µM (inactive) | > 100 µM (inactive) | > 100 µM (inactive) | > 100 µM (inactive) | > 100 µM (inactive) | > 100 µM (inactive) | > 100 µM (inactive) | > 100 µM (inactive) | > 100 µM (inactive) | > 100 µM (inactive) | > 100 µM (inactive) | > 100 µM (inactive) | > 100 µM (inactive)
3 | Cc1cc(C)nc(SCCc2cccc[n+]2C)n1 | > 100 µM (inactive) | > 100 µM (inactive) | 34.4 µM (inactive) | > 100 µM (inactive) | > 100 µM (inactive) | > 100 µM (inactive) | > 100 µM (inactive) | 60.7 µM (inactive) | > 100 µM (inactive) | > 100 µM (inactive) | > 100 µM (inactive) | > 100 µM (inactive) | > 100 µM (inactive) | > 100 µM (inactive) | > 100 µM (inactive) | > 100 µM (inactive) | > 100 µM (inactive) | > 100 µM (inactive) | > 100 µM (inactive) | > 100 µM (inactive)
4 | CC(=O)N(C(C)=O)c1ncc(-n2nc(-c3ccccc3)cc2-c2ccccc2)c(-c2ccccc2)n1 | > 10 µM (inactive) | > 10 µM (inactive) | > 10 µM (inactive) | > 10 µM (inactive) | > 10 µM (inactive) | > 10 µM (inactive) | > 10 µM (inactive) | > 10 µM (inactive) | > 10 µM (inactive) | > 10 µM (inactive) | > 10 µM (inactive) | > 10 µM (inactive) | > 10 µM (inactive) | > 10 µM (inactive) | > 10 µM (inactive) | > 10 µM (inactive) | > 10 µM (inactive) | > 10 µM (inactive) | > 10 µM (inactive) | 7.83 µM (inactive)
5 | C=C1C(=O)OC2CC(C)C(C(O)CC(C)O)=CCC12 (stereo not given) | 12.9 µM (inactive) | 14.2 µM (inactive) | 25.9 µM (inactive) | 14.3 µM (inactive) | 10.4 µM (inactive) | 18 µM (inactive) | 6.67 µM (inactive) | 16.9 µM (inactive) | 16.8 µM (inactive) | 16.6 µM (inactive) | 17 µM (inactive) | 4.3 µM (inactive) | 18.3 µM (inactive) | 9.14 µM (inactive) | 12 µM (inactive) | 11.4 µM (inactive) | 10.5 µM (inactive) | 13.7 µM (inactive) | 14.1 µM (inactive) | 3.08 µM (inactive)
6 | CCCCCC(=O)OC[n+]1cccc(-c2c(COC(=O)NC(C)C)c(COC(=O)NC(C)C)c3n2CCC3)c1 | > 100 µM (inactive) | 35.4 µM (inactive) | 70.5 µM (inactive) | 28.5 µM (inactive) | 31.7 µM (inactive) | > 100 µM (inactive) | 32.7 µM (inactive) | 15.9 µM (inactive) | > 34.2 µM (inactive) | 23.4 µM (inactive) | 49.4 µM (inactive) | 10.5 µM (inactive) | 33.7 µM (inactive) | > 84.1 µM (inactive) | 27.4 µM (inactive) | 30.6 µM (inactive) | 62.5 µM (inactive) | 30.7 µM (inactive) | 37.2 µM (inactive) | 10.2 µM (inactive)
7 | Cc1cc(S(=O)(=O)n2ccnc2Oc2ccccc2)c(SSc2cc(Cl)c(C)cc2S(=O)(=O)n2ccnc2Oc2ccccc2)cc1Cl | > 100 µM (inactive) | 74.1 µM (inactive) | > 100 µM (inactive) | 59.6 µM (inactive) | > 100 µM (inactive) | > 100 µM (inactive) | > 100 µM (inactive) | > 100 µM (inactive) | 42.6 µM (inactive) | > 100 µM (inactive) | 43.4 µM (inactive) | > 100 µM (inactive) | 1.01 µM (active) | > 100 µM (inactive) | > 100 µM (inactive) | 85.5 µM (inactive) | > 100 µM (inactive) | 93.3 µM (inactive) | > 100 µM (inactive) | 2.32 µM (inactive)
8 | Cc1nc(C)c(N2CCN(C#N)CC2)c(O)n1 | > 100 µM (inactive) | > 100 µM (inactive) | > 100 µM (inactive) | > 100 µM (inactive) | > 100 µM (inactive) | > 100 µM (inactive) | > 100 µM (inactive) | > 100 µM (inactive) | > 100 µM (inactive) | > 100 µM (inactive) | > 100 µM (inactive) | > 100 µM (inactive) | 0.0442 µM (active) | > 100 µM (inactive) | > 100 µM (inactive) | > 100 µM (inactive) | > 100 µM (inactive) | > 100 µM (inactive) | > 100 µM (inactive) | > 100 µM (inactive)
9 | CC1=CCC[C@@H]2[C@@](C)(Cc3cc(O)ccc3O)[C@H](C)CC[C@@]12C | 11.5 µM (inactive) | 10.3 µM (inactive) | 4.94 µM (inactive) | 7.43 µM (inactive) | 6.52 µM (inactive) | 7.66 µM (inactive) | 3.44 µM (inactive) | 15.3 µM (inactive) | 4.76 µM (inactive) | 10.5 µM (inactive) | 5.24 µM (inactive) | 11.3 µM (inactive) | 5.47 µM (inactive) | 9.08 µM (inactive) | 4.84 µM (inactive) | 9.2 µM (inactive) | 18.2 µM (inactive) | 6.49 µM (inactive) | 3.48 µM (inactive) | 1.81 µM (inactive)
10 | COc1ccc2[nH]c(C(=O)N3CC(CCl)c4ccc(N)cc43)cc2c1 (stereo not given) | 0.241 µM (active) | 0.0551 µM (active) | 0.0964 µM (active) | 0.0491 µM (active) | 0.173 µM (active) | 0.14 µM (active) | 0.361 µM (active) | 0.0789 µM (active) | 0.175 µM (active) | 0.141 µM (active) | 0.0912 µM (active) | 0.0877 µM (active) | 0.178 µM (active) | 0.37 µM (active) | 0.634 µM (active) | 0.347 µM (active) | 0.2 µM (active) | 0.233 µM (active) | 0.128 µM (active) | 0.0593 µM (active)
11 | Cn1c(=O)c2c(nc3n(Cc4ccccc4)c(=O)c(Br)cn23)n(C)c1=O | > 100 µM (inactive) | > 100 µM (inactive) | > 100 µM (inactive) | > 100 µM (inactive) | > 100 µM (inactive) | > 100 µM (inactive) | > 100 µM (inactive) | > 100 µM (inactive) | > 100 µM (inactive) | > 100 µM (inactive) | > 100 µM (inactive) | > 100 µM (inactive) | > 100 µM (inactive) | > 100 µM (inactive) | > 100 µM (inactive) | > 100 µM (inactive) | > 100 µM (inactive) | > 100 µM (inactive) | > 100 µM (inactive) | > 100 µM (inactive)
12 | C=CCC1(O)c2ccccc2C(=O)c2c(O)ccc(O)c21 (stereo not given) | 5.3 µM (inactive) | 9.95 µM (inactive) | 7.55 µM (inactive) | 10.5 µM (inactive) | 5.79 µM (inactive) | 3.94 µM (inactive) | > 23.8 µM (inactive) | 4.36 µM (inactive) | 5.98 µM (inactive) | 4.01 µM (inactive) | 2.12 µM (inactive) | 15.5 µM (inactive) | 3.82 µM (inactive) | 14.6 µM (inactive) | 12.9 µM (inactive) | 11.6 µM (inactive) | 13.3 µM (inactive) | 11.7 µM (inactive) | 11.1 µM (inactive) | 3.06 µM (inactive)
13 | CC1(C)N=c2c(ncn2N)=C(C(N)=O)N1 | > 100 µM (inactive) | > 100 µM (inactive) | > 100 µM (inactive) | > 100 µM (inactive) | > 100 µM (inactive) | > 100 µM (inactive) | > 100 µM (inactive) | > 100 µM (inactive) | > 100 µM (inactive) | > 100 µM (inactive) | > 100 µM (inactive) | > 100 µM (inactive) | > 100 µM (inactive) | > 100 µM (inactive) | 22.3 µM (inactive) | > 100 µM (inactive) | > 100 µM (inactive) | > 100 µM (inactive) | > 100 µM (inactive) | > 100 µM (inactive)
14 | C=C1C(=O)C23CC1C[C@H](OC(C)=O)[C@H]2C1(C)C(OC(C)=O)C[C@H](O)C(C)(C)[C@H]1C(=O)[C@@H]3OC(C)=O (stereo not given in full) | 2.43 µM (inactive) | 12.9 µM (inactive) | 17.9 µM (inactive) | 9.08 µM (inactive) | 1.71 µM (inactive) | 19.2 µM (inactive) | 1.33 µM (inactive) | 16.2 µM (inactive) | 12.4 µM (inactive) | 4.86 µM (inactive) | 16.7 µM (inactive) | 2.86 µM (inactive) | 18.4 µM (inactive) | 2.28 µM (inactive) | 0.248 µM (active) | 4.76 µM (inactive) | 2.17 µM (inactive) | 3.28 µM (inactive) | 1.95 µM (inactive) | 2.18 µM (inactive)
